According to patent US5001255A, “Idene analogs of mevalonolactone and derivatives thereof” (Sandoz Pharm. Corp., priority 1988, dated 1991):

Tests used:
[1] = molecular target: T1, HMG-CoA reductase (Rattus norvegicus, UniProt P51639); assay: Test A. In Vitro Microsomal Assay of HMG-CoA Reductase Inhibition; type: biochemical, rat (male Sprague-Dawley); settings: rat liver microsomes; [14C]HMG-CoA substrate; test substance 0.0001-2,000 μmolar; read-out: IC50 (concentration producing a 50% inhibition of HMG-CoA reductase activity)
T1 sequence (P51639 1-887): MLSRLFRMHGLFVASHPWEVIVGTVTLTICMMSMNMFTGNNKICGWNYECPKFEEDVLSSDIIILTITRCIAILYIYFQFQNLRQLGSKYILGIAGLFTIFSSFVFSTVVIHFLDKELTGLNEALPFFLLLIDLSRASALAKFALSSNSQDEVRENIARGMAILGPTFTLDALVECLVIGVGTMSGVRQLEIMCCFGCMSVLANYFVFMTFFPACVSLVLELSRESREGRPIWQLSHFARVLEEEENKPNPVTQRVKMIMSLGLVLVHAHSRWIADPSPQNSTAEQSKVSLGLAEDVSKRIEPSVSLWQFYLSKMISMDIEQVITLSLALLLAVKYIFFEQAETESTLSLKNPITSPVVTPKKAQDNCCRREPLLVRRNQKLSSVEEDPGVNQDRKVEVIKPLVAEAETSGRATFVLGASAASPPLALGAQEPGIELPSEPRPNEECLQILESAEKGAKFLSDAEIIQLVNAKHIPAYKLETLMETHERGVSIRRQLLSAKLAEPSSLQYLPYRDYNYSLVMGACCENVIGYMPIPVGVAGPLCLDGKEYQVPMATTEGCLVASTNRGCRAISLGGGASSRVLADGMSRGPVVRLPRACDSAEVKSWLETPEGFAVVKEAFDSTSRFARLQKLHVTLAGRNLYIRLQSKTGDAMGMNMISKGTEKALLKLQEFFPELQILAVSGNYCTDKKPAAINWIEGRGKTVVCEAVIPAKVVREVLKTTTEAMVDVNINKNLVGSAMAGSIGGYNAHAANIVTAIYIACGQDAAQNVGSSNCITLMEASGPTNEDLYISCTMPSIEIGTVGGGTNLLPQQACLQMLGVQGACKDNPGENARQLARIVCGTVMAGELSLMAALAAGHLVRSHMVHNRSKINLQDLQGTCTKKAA
Procedure: Test A. In Vitro Microsomal Assay of HMG-CoA Reductase Inhibition:
200 μl. aliquots (1.08-1.50 mg./ml.) of rat liver microsomal suspensions, freshly prepared from male Sprague-Dawley rats (150-225 g. body weight), in Buffer A with 10 mmol. dithiothreitol are incubated with 10 μl. of a solution of the test substance in dimethylacetamide and assayed for HMG-CoA reductase activity as described in Ackerman et al., J. Lipid Res. 18, 408-413 (1977), the concentration of the test substance in the assay system being 0.0001-2,000 μmolar. In the assay the microsomes are the source of the HMG-CoA reductase enzyme which catalyzes the reduction of HMG-CoA to mevalonate. The assay employs a chloroform extraction to separate the product, [^14 C]mevalonolactone, formed by the HMG-CoA reductase reduction of the substrate, [^14 C]HMG-CoA. [^3 H]mevalonolactone is added as an internal reference. Inhibition of HMG-CoA reductase is calculated from the decrease in specific activity ([^14 C/^3 H]mevalonate) of test groups compared to controls.
IC50 is the concentration of the test substance in the assay system calculated or observed to produce a 50% inhibition of HMG-CoA reductase activity.

[2] = system: 3β-hydroxysterol synthesis; assay: Test B. In Vivo Cholesterol Biosynthesis Inhibition Test; parameters: species or system rat (male Wistar Royal Hart); settings: Rattus norvegicus; rats, oral, 0.5% carboxymethylcellulose; i.p. sodium [1-14C]acetate one hour later; serum two hours after mid-dark; read-out: ED50 (dose producing a 50% inhibition of 3β-hydroxysterol synthesis)
Procedure: Test B. In Vivo Cholesterol Biosynthesis Inhibition Test:
In vivo studies utilize male Wistar Royal Hart rats weighing 150±20 g. which have been kept for 7-10 days on an
altered light cycle (6:30 A.M.-6:30 P.M. dark) housed two per cage and fed powdered Purina Rat Chow and water ad libitum. Three hours before the diurnal maximum of cholesterol synthesis at mid-dark, the rats are orally administered the test substance (e.g., 0.01-200 mg./kg. body weight) dissolved or as a suspension in 0.5% carboxymethylcellulose in a volume of 1 ml./100 g. body weight. Controls receive vehicle alone. One hour after receiving the test substance (or the vehicle alone), the rats are injected intraperitoneally with about 25 μCi/100 g. body weight of sodium [1-^14 C]acetate 1-3 mCi/mmol. Two hours after mid-dark, blood samples are obtained under sodium hexobarbitol anesthesia, and the serum is separated by centrifugation.
The [^14 C]digitonides are then counted by liquid scintillation spectrometry. After correcting for efficiencies, the results are calculated in nCi (nanocuries) of 3β-hydroxysterol formed per 100 ml. of serum. Inhibition of 3β-hydroxysterol synthesis is calculated from the reduction in the nCi of 3β-hydroxysterols formed from test qroups compared to controls.
ED50 is the dose of the test substance calculated or observed to produce a 50% inhibition of 3β-hydroxysterol synthesis.

Compound | IC50 [1] | ED50 [2]
Cc1cc(C)cc(C2=C(/C=C/[C@H]3C[C@@H](O)CC(=O)O3)C3(CCCC3)c3ccccc32)c1 (relative stereo) [Example 7] | 150 nM | 
Cc1cc(C)cc(C2=C(/C=C/[C@@H](O)C[C@@H](O)CC(=O)O)C3(CCCC3)c3ccccc32)c1 (relative stereo) [Example 8, Sodium erythro-(E)-3,5-dihydroxy-7-[3'-(3",5"-dimethylphenyl)spiro[cyclopentane-1,1'(1H)-inden]-2'-yl]hept-6-enoate] | 7 nM | 0.31 mg/kg
CC[C@H](C)C(=O)O[C@H]1CCC=C2C=C[C@H](C)[C@H](CC[C@@H]3C[C@@H](O)CC(=O)O3)[C@H]21 [Compactin, reference compound] |  | 3.5 mg/kg
CCC1(CC)C(/C=C/C(O)CC(O)CC(=O)O)=C(c2ccc(F)cc2)c2ccccc21 (centres unmarked) [Example 17] | 4700 nM | 
CC(C)C1C(/C=C/[C@@H]2C[C@@H](O)CC(=O)O2)=C(c2ccc(F)cc2)c2ccccc21 (some centres unmarked) [Example 20] | 530 nM | 

The next lines start with results.

IC50 [1] | Compound | ED50 [2]
3 nM | O=C(O)C[C@H](O)C[C@H](O)/C=C/C1=C(c2ccc(F)cc2)c2ccccc2C12CCCC2 | 
5 nM | O=C(O)C[C@H](O)C[C@H](O)/C=C/C1=C(c2ccc(F)cc2)c2ccccc2C12CCCC2 (relative stereo) [Example 2, Sodium erythro-(E)-3,5-dihydroxy-7-[3'-(4"-fluorophenyl)spiro[cyclopentane-1,1'(1H)-inden]-2'-yl]hept-6-enoate] | 0.07 mg/kg
19 nM | CCOC(=O)CC(O)CC(O)/C=C/C1=C(c2ccc(F)cc2)c2ccccc2C12CC2 (centres unmarked) [Example 24] | 0.71 mg/kg
